The source of these data is patent US8618114B2 (priority 2008, dated 2013).

Where a name gives a salt, the structure may show the parent alone.

T1 sequence (P50406 whole entry): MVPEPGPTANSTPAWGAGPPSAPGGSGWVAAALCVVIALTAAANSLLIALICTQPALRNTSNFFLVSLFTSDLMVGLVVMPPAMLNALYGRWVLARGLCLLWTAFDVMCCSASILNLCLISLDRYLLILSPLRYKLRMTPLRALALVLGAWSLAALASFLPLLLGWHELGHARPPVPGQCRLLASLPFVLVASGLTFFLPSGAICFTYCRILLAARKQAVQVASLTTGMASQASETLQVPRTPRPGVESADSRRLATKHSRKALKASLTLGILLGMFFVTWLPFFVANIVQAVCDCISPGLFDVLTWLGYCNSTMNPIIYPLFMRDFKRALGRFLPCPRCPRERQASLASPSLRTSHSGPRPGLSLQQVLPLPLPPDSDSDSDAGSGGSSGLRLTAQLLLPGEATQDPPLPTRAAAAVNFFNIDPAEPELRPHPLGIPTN

One experiment concerns the target T1, 5-HT6 receptor (Homo sapiens (Human), UniProt P50406). The experiment can be described thus: functional assay for serotonin 5-HT6 receptor inhibition (serotonin-induced intracellular cAMP, LANCE cAMP kit, HEK 293 cells). The class given is cell-based. The settings on record: HEK 293 cells with expressed 5-HT6 receptor; reduction of serotonin-induced intracellular cAMP. The protocol: Determination of antagonistic activity of compounds of the general formula 1 towards 5-HT6 receptors. Compounds of the general formula 1 were tested for their ability to prevent 5-HT6 receptors activation by serotonin. HEK 293 cells (cells of human embryo's kidney) with artificially expressed 5-HT6 receptor, activation of which by serotonin leads to increasing the concentration of intracellular cAMP, were used. The level of intracellular cAMP was determined using reagent kit LANCE cAMP (PerkinElmer) according to the method described by the manufacturer of the kit [http://las.perkinelmer.com/content/Manuals/MAN_LANCEcAMP384KitUser.pdf]. Effectiveness of the compounds was estimated by their ability to reduce the level of intracellular cAMP induced by serotonin. Table 4 presents IC50 values for the compounds of general formula 1 in the setting of functional assay for serotonin 5-HT6 receptor inhibition. The data given testify their moderate or high antagonistic activity.
As for `CSc1nn2c(C)c(Cl)c(C)nc2c1S(=O)(=O)c1ccccc1` [1.1(4)], 0.3 µM corresponded to half-maximal inhibition (IC50).

`CSc1nn2c(C)c(Oc3ccccc3)c(C)nc2c1S(=O)(=O)c1ccccc1` [1.1(6)]: the 50% inhibitory concentration (IC50) – broadly, the concentration that inhibits the measured activity by half – is more than 10 µM.

Consider `CSc1nn2c(C)c(Oc3cccnc3)c(C)nc2c1S(=O)(=O)c1ccccc1` [1.1(7)], for which it took 0.514 µM to reach half-maximal inhibition (IC50).

The molecule `CSc1nn2cccnc2c1S(=O)(=O)c1ccccc1` [1.1.1(1), 2-methylsulfanyl-3-phenylsulfonyl-pyrazolo[1,5-a]pyrimidine] displayed a half-maximal inhibitory concentration (IC50) of 5.2 µM.

The molecule `CSc1nn2cccnc2c1S(=O)(=O)c1cccc(Cl)c1` [1.1.1(3)] showed a 50% inhibitory concentration (IC50) of 0.473 µM.

`CSc1nn2cccnc2c1S(=O)(=O)c1ccc(F)c(Cl)c1` [1.1.1(4)] gave an IC50 of 0.912 µM.

Take `CSc1nn2cccnc2c1S(=O)(=O)c1cccc(C)c1` [1.1.1(6)]: inhibition was half-maximal at 2.2 µM (IC50).

Molecule `CSc1nn2cccnc2c1S(=O)(=O)c1ccc(F)cc1` [1.1.1(7)] yielded a half-maximal inhibitory concentration (IC50) of 1.87 µM.

Consider `CSc1nn2ccc(C)nc2c1S(=O)(=O)c1ccccc1` [1.1.2(1), 5-methyl-2-methylsulfanyl-3-phenylsulfonyl-pyrazolo[1,5-a]pyrimidine], for which the IC50 was 0.45 µM.

As for `CSc1nn2ccc(C)nc2c1S(=O)(=O)c1ccc(F)cc1` [1.1.2(2), 5-methyl-2-methylsulfanyl-3-(4-fluorophenylsulfonyl)-pyrazolo[1,5-a]pyrimidine], the IC50 is 0.996 µM.

Regarding `CSc1nn2ccc(C)nc2c1S(=O)(=O)c1ccc(F)c(Cl)c1` [1.1.2(5), 5-methyl-2-methylsulfanyl-3-(4-fluoro-3-chlorophenylsulfonyl)-pyrazolo[1,5-a]pyrimidine], the IC50 was 0.187 µM.

The molecule `CSc1nn2c(C)ccnc2c1S(=O)(=O)c1ccccc1` [1.1.3(1), 7-methyl-2-methylsulfanyl-3-phenylsulfonyl-pyrazolo[1,5-a]pyrimidine] yielded a 50% inhibitory concentration (IC50) of 1.11 µM.

`CSc1nn2c(C)ccnc2c1S(=O)(=O)c1ccc(F)c(Cl)c1` [1.1.3(5), 7-methyl-2-methylsulfanyl-3-(4-fluoro-3-chlorophenylsulfonyl)-pyrazolo[1,5-a]pyrimidine] gave a 50% inhibitory concentration (IC50) of 0.156 µM.

The molecule `COCc1cc(C)n2nc(SC)c(S(=O)(=O)c3ccccc3)c2n1` [1.1.5(1), 7-methyl-2-methylsulfanyl-5-(methoxymethyl)-3-phenylsulfonyl-pyrazolo[1,5-a]pyrimidine] displayed a half-maximal inhibitory concentration (IC50) of 0.414 µM.

Turning to `CSc1nn2c(CO)cc(C)nc2c1S(=O)(=O)c1ccccc1` [1.1.6(1), 7-(hydroxymethyl)-5-methyl-2-methylsulfanyl-3-phenylsulfonyl-pyrazolo[1,5-a]pyrimidine], half-maximal inhibition (IC50) required 0.073 µM.

As to `COc1cc(-c2ccccn2)nc2c(S(=O)(=O)c3ccccc3)c(SC)nn12` [1.1.8(2), 2-methylsulfanyl-7-methoxy-5-(pyridin-2-yl)-3-phenylsulfonyl-pyrazolo[1,5-a]pyrimidine], the half-inhibitory concentration (IC50) was determined as 30.1 µM.

For `COc1cc(-c2cccnc2)nc2c(S(=O)(=O)c3ccccc3)c(SC)nn12` [1.1.8(3), 2-methylsulfanyl-7-methoxy-5-(pyridin-3-yl)-3-phenylsulfonyl-pyrazolo[1,5-a]pyrimidine], the IC50 was less than 0.01 µM.

In turn, `CNc1nn2c(N3CCOCC3)cc(C)nc2c1S(=O)(=O)c1ccccc1` [1.1.12(5)] gave a 50% inhibitory concentration (IC50) of 0.197 µM.

Molecule `CNc1nn2c(C)c(Cl)c(C)nc2c1S(=O)(=O)c1ccccc1` [1.2(1)] displayed a concentration for half-maximal inhibition (IC50) of 0.052 µM.

Molecule `CNc1nn2c(-c3ccccn3)cc(-c3ccccn3)nc2c1S(=O)(=O)c1ccccc1` [1.2(4)] returned a half-inhibitory concentration (IC50) of 0.723 µM.

On to `CNc1nn2cccnc2c1S(=O)(=O)c1ccccc1` [1.2.1(1), 2-methylamino-3-phenylsulfonyl-pyrazolo[1,5-a]pyrimidine], for which the IC50 was found to be 0.076 µM.

`CNc1nn2cccnc2c1S(=O)(=O)c1ccc(F)cc1` [1.2.1(2), 2-methylamino-3-(4-fluorophenylsulfonyl)-pyrazolo[1,5-a]pyrimidine] returned a half-inhibitory concentration (IC50) of 0.045 µM.

For the molecule `CNc1nn2ccc(C)nc2c1S(=O)(=O)c1ccccc1` [1.2.2(1), 5-methyl-2-methylamino-3-phenylsulfonyl-pyrazolo[1,5-a]pyrimidine], the IC50 is 0.016 µM.

Molecule `CNc1nn2c(C)cc(COC)nc2c1S(=O)(=O)c1ccccc1` [1.2.5(1), 7-methyl-2-methylamino-5-(methoxymethyl)-3-phenylsulfonyl-pyrazolo[1,5-a]pyrimidine] returned an IC50 of 0.004 µM.

`CNc1nn2c(CO)cc(C)nc2c1S(=O)(=O)c1ccccc1` [1.2.6(1), 7-(hydroxymethyl)-5-methyl-2-methylamino-3-phenylsulfonyl-pyrazolo[1,5-a]pyrimidine] displayed an IC50 of 0.004 µM.

The molecule `CNc1nn2c(C)cc(-c3ccncc3)nc2c1S(=O)(=O)c1ccccc1` [1.2.8(8), 7-methyl-2-methylamino-5-(pyridin-4-yl)-3-phenylsulfonyl-pyrazolo[1,5-a]pyrimidine] showed an IC50 of 0.004 µM.

With `CNc1nn2c(-c3cccnc3)ccnc2c1S(=O)(=O)c1ccccc1` [1.2.9(2), 2-methylamino-7-(pyridin-3-yl)-3-phenylsulfonyl-pyrazolo[1,5-a]pyrimidine], inhibition was half-maximal at 1.04 µM (IC50).

The molecule `CNc1nn2c(-c3cccnc3)cc(C)nc2c1S(=O)(=O)c1ccccc1` [1.2.9(7), 5-methyl-2-methylamino-7-(pyridin-3-yl)-3-phenylsulfonyl-pyrazolo[1,5-a]pyrimidine] displayed a 50% inhibitory concentration (IC50) of 0.341 µM.

`CNc1nn2c(NC)cc(C)nc2c1S(=O)(=O)c1ccccc1` [1.2.12(1), 2,7-di(methylamino)-5-methyl-3-phenylsulfonyl-pyrazolo[1,5-a]pyrimidine] registered an IC50 of 0.009 µM.

The molecule `CNc1nn2c(N(C)C)cc(C)nc2c1S(=O)(=O)c1ccccc1` [1.2.12(2), 7-dimethylamino-5-methyl-2-methylamino-3-phenylsulfonyl-pyrazolo[1,5-a]pyrimidine] gave a half-maximal inhibitory concentration (IC50) of 0.012 µM.

In turn, `CNc1nn2c(N(C)C)cc(-c3cccnc3)nc2c1S(=O)(=O)c1ccccc1` [1.2.12(9), 7-dimethylamino-2-methylamino-5-(pyridin-3-yl)-3-phenylsulfonyl-pyrazolo[1,5-a]pyrimidine] yielded an IC50 of 0.013 µM.

As for `CNc1nn2c(N(C)CCN(C)C)cc(C)nc2c1S(=O)(=O)c1ccccc1` [1.2.12(11)], the IC50 came out at 0.172 µM.

Molecule `CNc1nn2c(N(C)CCN(C)C)cc(C)nc2c1S(=O)(=O)c1ccccc1` [1.2.12(12)] had a half-inhibitory concentration (IC50) of 1.86 µM.

Turning to `CNc1nn2c(C)c(CCCN)c(C)nc2c1S(=O)(=O)c1ccccc1` [1.2.22(4).HCl], 0.078 µM corresponded to half-maximal inhibition (IC50).

For `CNc1nn2c(C)c(CN)c(C)nc2c1S(=O)(=O)c1cccc(F)c1` [1.2.22(6).HCl], the IC50 stood at 0.0252 µM.

For `CNc1nn2c(C)c(CN(C)C)c(C)nc2c1S(=O)(=O)c1ccccc1` [1.2.22(10).HCl], the 50% inhibitory concentration (IC50) came to 0.026 µM.

The molecule `CNc1nn2c(C)c(CN(C)C)c(C)nc2c1S(=O)(=O)c1cccc(Cl)c1` [1.2.22(11).HCl] had an IC50 of 0.022 µM.

For the molecule `CNc1nn2c(C)c(CCN(C)C)c(C)nc2c1S(=O)(=O)c1ccccc1` [1.2.22(14).HCl], the IC50 was determined as 0.0564 µM.

Take `CNc1nn2c(C)c(N(C)C)c(C)nc2c1S(=O)(=O)c1ccccc1` [1.2.22(24).HCl]: the IC50 amounted to 0.006 µM.

As for `CNc1nn2c(C)cc(CN)nc2c1S(=O)(=O)c1ccc(F)cc1` [1.2.23(2).HCl], 0.037 µM corresponded to half-maximal inhibition (IC50).

For the molecule `CNc1nn2c(C)cc(CN(C)C)nc2c1S(=O)(=O)c1ccccc1` [1.2.23(10).HCl], half-maximal inhibition (IC50) required 0.06 µM.

Regarding `CNc1nn2c(C)cc(CN(C)C)nc2c1S(=O)(=O)c1cccc(Cl)c1` [1.2.23(11).HCl], half-maximal inhibition (IC50) required 0.067 µM.

Take `CNc1nn2c(C)cc(CN(C)C)nc2c1S(=O)(=O)c1cccc(F)c1` [1.2.23(12).HCl]: the half-inhibitory concentration (IC50) was determined as 0.07 µM.

The molecule `CNc1nn2c(CN)cc(C)nc2c1S(=O)(=O)c1ccccc1` [1.2.24(1).HCl] gave an IC50 of 0.015 µM.

As to `CNc1nn2c(CN)cc(C)nc2c1S(=O)(=O)c1ccc(F)cc1` [1.2.24(2).HCl], the half-inhibitory concentration (IC50) is 0.022 µM.

The molecule `CNc1nn2c(CCN)cc(C)nc2c1S(=O)(=O)c1ccccc1` [1.2.24(3).HCl] yielded an IC50 of 0.03 µM.

Regarding `CNc1nn2c(CN(C)C)cc(C)nc2c1S(=O)(=O)c1ccccc1` [1.2.24(10).HCl], the IC50 was determined as 0.021 µM.

Take `CNc1nn2c(CN(C)C)cc(C)nc2c1S(=O)(=O)c1cccc(Cl)c1` [1.2.24(11).HCl]: the IC50 amounted to 0.033 µM.

Regarding `CNc1nn2c(CN(C)C)cc(C)nc2c1S(=O)(=O)c1cccc(F)c1` [1.2.24(12).HCl], the IC50 was determined as 0.035 µM.

As to `CNc1nn2c(CCN(C)C)cc(C)nc2c1S(=O)(=O)c1ccccc1` [1.2.24(14).HCl], the IC50 is 0.899 µM.

In another experiment the target is T1, 5-HT6 receptor. In words: competitive radioligand binding ([3H] Lysergic acid diethylamide) to serotonin 5-HT6 receptors, HeLa cell membranes. To be noted: read-out: IC50, competitive assay of serotonin 5-HT6 receptor inhibition; displacement of 1.5 nM [3H] Lysergic acid diethylamide, 120 min at 37° C.
Method: Determination of activity of the compounds of the general formula 1 in the setting of competitive binding to serotonin 5-HT6 receptors.
Screening of the disclosed compounds for their potential ability to interact with serotonin 5-HT6 receptors was carried out by method of radioligand binding. For this purpose membrane species were prepared from expressing recombinant human 5-HT6 receptors HeLa cells by means of their homogenization in glass homogenizer with subsequent separation of plasmatic membranes from cell nucli, mitochondria's and cell wreckages by differential centrifugation. Determination of tested compounds binding to 5-HT6 receptors was carried out according to the method described in [Monsma F J Jr, Shen Y, Ward R P, Hamblin M W and Sibley D R, Cloning and expression of a novel serotonin receptor with high affinity for tricyclic psychotropic drugs. […] After incubation the samples were filtered in vacuo on glass-microfiber filters G/F (Millipor, USA), filters were washed three times with cold solution of the medium and radioactivity was measured by scintillation counter MicroBeta 340 (PerkinElmer, USA). Nonspecific binding which made up 30% of overall binding was determined by incubation of membrane preparations with radioligand in the presence of 5 μM Serotonin (5-HT). Methiothepin was used as positive control. Binding of the tested compounds to the receptor was determined by their ability to displace the radioligand and expressed in percent of displacement. The percent of displacement was calculated according to the following equation:
[formula] wherein: TA—was overall radioactivity in the presence of radioligand only, CA—was radioactivity in the presence of radioligand and tested compound and NA—was radioactivity in the presence of radioligand and Serotonin (5 μM).
On to `CSc1nn2c(C)c(Cl)c(C)nc2c1S(=O)(=O)c1ccccc1` [1.1(4)], for which the concentration for half-maximal inhibition (IC50) is less than 0.01 µM.

As for `CSc1nn2c(C)c(Oc3ccccc3)c(C)nc2c1S(=O)(=O)c1ccccc1` [1.1(6)], the half-maximal inhibitory concentration (IC50) turned out to be 0.05 µM.

`CSc1nn2ccc(C)nc2c1S(=O)(=O)c1ccc(F)cc1` [1.1.2(2), 5-methyl-2-methylsulfanyl-3-(4-fluorophenylsulfonyl)-pyrazolo[1,5-a]pyrimidine]: the IC50 stood at 0.05 µM.

Consider `CSc1nn2c(C)ccnc2c1S(=O)(=O)c1ccccc1` [1.1.3(1), 7-methyl-2-methylsulfanyl-3-phenylsulfonyl-pyrazolo[1,5-a]pyrimidine], for which the IC50 stood at 0.04 µM.

In the case of `COc1cc(-c2cccnc2)nc2c(S(=O)(=O)c3ccccc3)c(SC)nn12` [1.1.8(3), 2-methylsulfanyl-7-methoxy-5-(pyridin-3-yl)-3-phenylsulfonyl-pyrazolo[1,5-a]pyrimidine], the IC50 was less than 0.01 µM.

Take `CNc1nn2cccnc2c1S(=O)(=O)c1ccc(F)cc1` [1.2.1(2), 2-methylamino-3-(4-fluorophenylsulfonyl)-pyrazolo[1,5-a]pyrimidine]: the IC50 was found to be 0.018 µM.

Take `CNc1nn2c(N3CCOCC3)cc(C)nc2c1S(=O)(=O)c1ccccc1` [1.2.12(5), 5-methyl-2-methylamino-7-(morfolin-4-yl)-3-phenylsulfonyl-pyrazolo[1,5-a]pyrimidine]: the IC50 was 0.031 µM.

In the case of `CCOC(=O)Cc1c(C)nc2c(S(=O)(=O)c3ccccc3)c(NC(C)C)nn2c1C` [1.2.13(3)], the half-inhibitory concentration (IC50) was determined as 0.00128 µM.

Take `CNc1nn2c(C)c(CC(=O)N(C)C)c(C)nc2c1S(=O)(=O)c1ccccc1` [1.2.19(1).CH3CO2H]: the IC50 was determined as 0.0153 µM.
